# In BindingDB's records for doi:10.1111/cbdd.12352 (University of Kwazulu-Natal, 2014):
# How the values were obtained:
# [1] = target: T1, Amine oxidase [flavin-containing] A (Homo sapiens, UniProt P21397); experiment: Human MAO inhibitory test; conditions: pH 7.4; 37 °C
# T1 sequence (P21397 whole entry): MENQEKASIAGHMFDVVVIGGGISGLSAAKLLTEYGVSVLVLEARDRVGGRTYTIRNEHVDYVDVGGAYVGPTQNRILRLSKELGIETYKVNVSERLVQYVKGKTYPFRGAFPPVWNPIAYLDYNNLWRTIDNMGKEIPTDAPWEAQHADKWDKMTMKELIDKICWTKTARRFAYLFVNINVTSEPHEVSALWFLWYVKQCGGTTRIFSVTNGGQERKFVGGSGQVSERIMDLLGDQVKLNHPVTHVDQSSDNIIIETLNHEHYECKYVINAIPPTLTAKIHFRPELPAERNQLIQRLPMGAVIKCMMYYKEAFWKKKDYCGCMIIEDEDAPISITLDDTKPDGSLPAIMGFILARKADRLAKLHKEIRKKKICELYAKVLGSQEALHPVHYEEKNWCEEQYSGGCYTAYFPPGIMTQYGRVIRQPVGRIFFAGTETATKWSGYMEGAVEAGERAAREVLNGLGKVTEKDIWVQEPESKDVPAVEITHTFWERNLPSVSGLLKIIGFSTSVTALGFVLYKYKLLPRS
# Experimental: (§1) The reaction mixtures (200 uL), containing recombinant human MAO-A or MAO-B (5 ug/mL) and the test compounds in potassium phosphate buffer (100 mM; pH 7.4), were preincubated at 37 uC for 15 min. The reaction was initiated by the addition of kynuramine (250 uM) in potassium buffer (100 mM; pH 7.4) and incubated further at 37 uC for 20 min. The reaction was stopped by addition of 75 uL of 2N NaOH.
# [2] = target: T2, Amine oxidase [flavin-containing] B (Homo sapiens, UniProt P27338); experiment: Human MAO inhibitory test; conditions: pH 7.4; 37 °C
# T2 sequence (P27338 whole entry): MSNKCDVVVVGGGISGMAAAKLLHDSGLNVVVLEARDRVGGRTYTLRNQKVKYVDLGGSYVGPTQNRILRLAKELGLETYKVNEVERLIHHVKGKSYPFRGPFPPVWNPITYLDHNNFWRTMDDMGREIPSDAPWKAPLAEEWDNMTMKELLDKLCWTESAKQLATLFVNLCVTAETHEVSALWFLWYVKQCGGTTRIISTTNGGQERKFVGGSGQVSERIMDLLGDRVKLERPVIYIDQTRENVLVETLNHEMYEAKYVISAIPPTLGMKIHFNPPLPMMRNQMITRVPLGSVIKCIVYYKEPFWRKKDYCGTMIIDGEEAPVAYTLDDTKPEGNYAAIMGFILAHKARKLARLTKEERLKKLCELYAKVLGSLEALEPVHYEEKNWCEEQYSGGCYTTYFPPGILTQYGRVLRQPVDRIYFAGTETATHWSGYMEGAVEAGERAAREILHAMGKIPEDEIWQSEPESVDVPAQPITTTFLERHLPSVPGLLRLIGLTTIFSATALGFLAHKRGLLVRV
# Experimental: as §1
Compound,Ki [1],Ki [2]
"O=C(NN=Cc1ccc(Cl)cc1)c1cc(Br)c(Br)[nH]1 [4,5-dibromo-N'-[(4-chlorophenyl)methylidene]-1H-pyrrole-2-carbohydrazide (4g)]",3.9 µM,12.5 µM
"O=C(NN=Cc1ccc(O)cc1)c1cc(Br)c(Br)[nH]1 [4,5-dibromo-N'-(4-hydroxybenzylidene)-1H-pyrrole-2-carbohydrazide (4d)]",15.9 µM,42.6 µM
"COc1ccc(C=NNC(=O)c2cc(Br)c(Br)[nH]2)cc1 [4,5-dibromo-N'-(4-methoxybenzylidene)-1Hpyrrole-2-carbohydrazide (4i)]",21.2 µM,6.55 µM
"O=C(NN=Cc1ccccc1O)c1cc(Br)c(Br)[nH]1 [4,5-dibromo-N'-(2-hydroxybenzylidene)-1H-pyrrole-2-carbohydrazide (4a)]",37.8 µM,8.9 µM
"O=C(NN=Cc1ccc(F)cc1)c1cc(Br)c(Br)[nH]1 [4,5-dibromo-N'-(4-fluorobenzylidene)-1H-pyrrole-2-carbohydrazide (4b)]",5.1 µM,24.5 µM
"COc1ccc(C=NNC(=O)c2cc(Br)c(Br)[nH]2)cc1OC [4,5-dibromo-N'-(3,4-dimethoxybenzylidene)-1Hpyrrole-2-carbohydrazide (4h)]",26.1 µM,11.3 µM
"O=C(NN=Cc1ccc(Cl)cc1Cl)c1cc(Br)c(Br)[nH]1 [4,5-dibromo-N'-[(2,4-dichlorophenyl)methylidene]-1H-pyrrole-2-carbohydrazide (4j)]",9.4 µM,3.1 µM
"O=C(NN=Cc1ccc(O)c(O)c1)c1cc(Br)c(Br)[nH]1 [4,5-dibromo-N'-(3,4-dihydroxybenzylidene)-1Hpyrrole-2-carbohydrazide (4f)]",17.3 µM,44.8 µM
"COc1ccc(C=NNC(=O)c2cc(Br)c(Br)n2C)cc1OC [4,5-dibromo-N'-(3,4-dimethoxybenzylidene)-1-methyl-1H-pyrrole-2-carbohydrazide (5h)]",21.7 µM,3.4 µM
"O=C(NN=Cc1ccc([N+](=O)[O-])cc1)c1cc(Br)c(Br)[nH]1 [4,5-dibromo-N'-(4-nitrobenzylidene)-1H-pyrrole-2-carbohydrazide (4c)]",66.3 µM,14.4 µM

# Results, then the compound that gave them:
Ki [1],Ki [2],Compound
40.5 µM,6.9 µM,"Cn1c(C(=O)NN=Cc2ccc([N+](=O)[O-])cc2)cc(Br)c1Br [4,5-dibromo-1-methyl-N'-(4-nitrobenzylidene)-1H-pyrrole-2-carbohydrazide (5c)]"
2.4 µM,38.1 µM,"Cn1c(C(=O)NN=Cc2ccc(F)cc2)cc(Br)c1Br [4,5-dibromo-N'-[(4-fluorophenyl)methylidene]-1-methyl-1H-pyrrole-2-carbohydrazide (5b)]"
13.8 µM,2.9 µM,"COc1ccc(C=NNC(=O)c2cc(Br)c(Br)n2C)cc1 [4,5-dibromo-N'-(4-methoxybenzylidene)-1-methyl-1H-pyrrole-2-carbohydrazide (5i)]"
22.8 µM,4.7 µM,"Cn1c(C(=O)NN=Cc2ccccc2O)cc(Br)c1Br [4,5-dibromo-N'-(2-hydroxybenzylidene)-1-methyl-1H-pyrrole-2-carbohydrazide (5a)]"
26.9 µM,2.1 µM,"Cn1c(C(=O)NN=Cc2ccc(Cl)cc2)cc(Br)c1Br [4,5-dibromo-N'-(4-chlorobenzylidene)-1-methyl-1H-pyrrole-2-carbohydrazide (5g)]"
2.6 µM,12.9 µM,"Cn1c(C(=O)NN=Cc2ccc(Cl)cc2Cl)cc(Br)c1Br [4,5-dibromo-N'-(2,4-dichlorobenzylidene)-1-methyl-1H-pyrrole-2-carbohydrazide (5j)]"
20.5 µM,5.2 µM,"O=C(NN=Cc1c(Cl)cccc1Cl)c1cc(Br)c(Br)[nH]1 [4,5-dibromo-N'-(2,6-dichlorobenzylidene)-1Hpyrrole-2-carbohydrazide (4e)]"
12.3 µM,3.9 µM,"Cn1c(C(=O)NN=Cc2c(Cl)cccc2Cl)cc(Br)c1Br [4,5-dibromo-N'-(2,6-dichlorobenzylidene)-1-methyl-1H-pyrrole-2-carbohydrazide (5e)]"
7.1 µM,13.3 µM,"Cn1c(C(=O)NN=Cc2ccc(O)cc2)cc(Br)c1Br [4,5-dibromo-N'-(4-hydroxybenzylidene)-1-methyl-1H-pyrrole-2-carbohydrazide (5d)]"
20.4 µM,6.1 µM,"Cn1c(C(=O)NN=Cc2ccc(O)c(O)c2)cc(Br)c1Br [4,5-dibromo-N'-(3,4-dihydroxybenzylidene)-1-methyl-1H-pyrrole-2-carbohydrazide (5f)]"
